Reference: ChEMBL document CHEMBL3797052 (Eur J Med Chem, 2016)

Assays:
[1] = Antiproliferative activity against human SNB75 cells assessed as growth inhibition after 48 hrs by sulforhodamine B assay; type: functional; conditions: SNB-75, 48 h; for CC50: read-out: LC50 (the source's name)
[2] = test system: EKVX; test: Antiproliferative activity against human EKVX cells assessed as growth inhibition after 48 hrs by sulforhodamine B assay; type: functional; conditions: for CC50: read-out: LC50 (the source's name)
[3] = Antiproliferative activity against human PC3 cells assessed as growth inhibition after 48 hrs by sulforhodamine B assay; type: functional; conditions: PC-3, 48 h
[4] = Antiproliferative activity against human OVCAR5 cells assessed as growth inhibition after 48 hrs by sulforhodamine B assay; type: functional; conditions: OVCAR-5, 48 h; for CC50: read-out: LC50 (the source's name)
[5] = Antiproliferative activity against human HL-60(TB) cells assessed as growth inhibition after 48 hrs by sulforhodamine B assay; type: functional; conditions: HL-60, 48 h
[6] = test system: NCI-H226; test: Antiproliferative activity against human NCI-H226 cells assessed as growth inhibition after 48 hrs by sulforhodamine B assay; type: functional; conditions: NCI-H226, 48 h; for CC50: read-out: LC50 (the source's name)
[7] = test system: NCI-H322M; test: Antiproliferative activity against human NCI-H322M cells assessed as growth inhibition after 48 hrs by sulforhodamine B assay; type: functional
[8] = Antiproliferative activity against human SF268 cells assessed as growth inhibition after 48 hrs by sulforhodamine B assay; type: functional; conditions: SF-268, 48 h
[9] = test system: Malme-3M; test: Antiproliferative activity against human MALME-3M cells assessed as growth inhibition after 48 hrs by sulforhodamine B assay; type: functional; conditions: for CC50: read-out: LC50 (the source's name)
[10] = Antiproliferative activity against human Hs 578T cells assessed as cell growth at 10^-4 M after 48 hrs by sulforhodamine B assay; type: functional; conditions: read-out: Activity
[11] = Antiproliferative activity against human DU145 cells assessed as cell growth at 10^-4 M after 48 hrs by sulforhodamine B assay; type: functional; conditions: DU-145, 48 h, read-out: Activity
[12] = test system: CCRF-CEM; test: Antiproliferative activity against human CCRF-CEM cells assessed as cell growth at 10^-4 M after 48 hrs by sulforhodamine B assay; type: functional; conditions: read-out: Activity
[13] = test system: A549; test: Antiproliferative activity against human A549/ATCC cells assessed as cell growth at 10^-4 M after 48 hrs by sulforhodamine B assay; type: functional; conditions: A549, 48 h, read-out: Activity
[14] = Antiproliferative activity against human SF295 cells assessed as cell growth at 10^-4 M after 48 hrs by sulforhodamine B assay; type: functional; conditions: SF-295, 48 h, read-out: Activity
[15] = Antiproliferative activity against human SF295 cells assessed as cell growth at 10^-7 M after 48 hrs by sulforhodamine B assay; type: functional; conditions: SF-295, 48 h, read-out: Activity
[16] = Antiproliferative activity against human HOP92 cells assessed as cell growth at 10^-6 M after 48 hrs by sulforhodamine B assay; type: functional; conditions: HOP-92, 48 h, read-out: Activity
[17] = test system: M14; test: Antiproliferative activity against human M14 cells assessed as cell growth at 10^-6 M after 48 hrs by sulforhodamine B assay; type: functional; conditions: M14, 48 h, read-out: Activity
[18] = test system: NCI-H226; test: Antiproliferative activity against human NCI-H226 cells assessed as cell growth at 10^-4 M after 48 hrs by sulforhodamine B assay; type: functional; conditions: NCI-H226, 48 h, read-out: Activity
[19] = Antiproliferative activity against human OVCAR4 cells assessed as cell growth at 10^-7 M after 48 hrs by sulforhodamine B assay; type: functional; conditions: OVCAR-4, 48 h, read-out: Activity
[20] = test system: MDA-MB-468; test: Antiproliferative activity against human MDA-MB-468 cells assessed as cell growth at […] after 48 hrs by sulforhodamine B assay; type: functional; conditions: MDA-MB-468, 48 h, read-out: Activity
[21] = test system: MDA-MB-435; test: Antiproliferative activity against human MDA-MB-435 cells assessed as cell growth at 10^-6 M after 48 hrs by sulforhodamine B assay; type: functional; conditions: MDA-MB-435, 48 h, read-out: Activity
[22] = target: T1, CYP1A2 (Homo sapiens, UniProt P05177); test: Inhibition of recombinant human CYP1A2 assessed as remaining enzyme activity using CYP1A2 blue as substrate at 10 uM after 5 mins in presence of NADP by fluorescence plate reader analysis; type: ADME; conditions: recombinant human CYP1A2, probe CYP1A2 blue, read-out: Activity
T1 sequence (P05177 whole entry): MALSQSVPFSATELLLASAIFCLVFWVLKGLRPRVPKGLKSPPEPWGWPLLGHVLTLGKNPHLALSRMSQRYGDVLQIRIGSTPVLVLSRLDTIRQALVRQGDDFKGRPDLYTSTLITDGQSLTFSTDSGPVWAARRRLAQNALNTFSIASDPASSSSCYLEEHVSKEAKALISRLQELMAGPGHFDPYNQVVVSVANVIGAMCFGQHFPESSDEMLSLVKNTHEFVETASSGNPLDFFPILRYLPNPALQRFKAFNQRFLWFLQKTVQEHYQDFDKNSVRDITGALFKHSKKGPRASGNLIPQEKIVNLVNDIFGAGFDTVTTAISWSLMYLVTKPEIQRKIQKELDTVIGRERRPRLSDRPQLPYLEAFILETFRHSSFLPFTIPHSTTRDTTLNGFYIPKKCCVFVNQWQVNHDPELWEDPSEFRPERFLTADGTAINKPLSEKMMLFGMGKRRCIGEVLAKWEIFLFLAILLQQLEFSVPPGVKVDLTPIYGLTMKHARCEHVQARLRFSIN

[23] = test system: HT-29; test: Antiproliferative activity against human HT-29 cells assessed as cell growth at 10^-8 M after 48 hrs by sulforhodamine B assay; type: functional; conditions: HT-29, 48 h, read-out: Activity
[24] = test system: SR; test: Antiproliferative activity against human SR cells assessed as cell growth at 10^-6 M after 48 hrs by sulforhodamine B assay; type: functional; conditions: read-out: Activity
[25] = test system: SK-MEL-2; test: Antiproliferative activity against human SK-MEL-2 cells assessed as cell growth at 10^-8 M after 48 hrs by sulforhodamine B assay; type: functional; conditions: SK-MEL-2, 48 h, read-out: Activity
[26] = Antiproliferative activity against human SW620 cells assessed as cell growth at […] M after 48 hrs by sulforhodamine B assay; type: functional; conditions: SW-620, 48 h, read-out: Activity
[27] = test system: SK-MEL-5; test: Antiproliferative activity against human SK-MEL-5 cells assessed as cell growth at 10^-7 M after 48 hrs by sulforhodamine B assay; type: functional; conditions: SK-MEL-5, 48 h, read-out: Activity
[28] = test system: A549; test: Antiproliferative activity against human A549/ATCC cells assessed as cell growth at […] after 48 hrs by sulforhodamine B assay; type: functional; conditions: A549, 48 h, read-out: Activity
[29] = test system: U-251; test: Antiproliferative activity against human U251 cells assessed as cell growth at 10^-4 M after 48 hrs by sulforhodamine B assay; type: functional; conditions: U-251, 48 h, read-out: Activity

Question: What does the source list for `CNC(=O)c1cc(Oc2ccc(NC(=O)Nc3ccc(Cl)c(C(F)(F)F)c3)cc2)ccn1` [SORAFENIB]?
Answer: GI50 [1]: 3.16 µM; TGI [1]: 10 µM; CC50 [1]: 39.8 µM; GI50 [2]: 2.51 µM; TGI [2]: 7.94 µM; CC50 [2]: 63.1 µM; GI50 [3]: 2 µM; TGI [3]: 7.94 µM; GI50 [4]: 3.16 µM; TGI [4]: 20 µM; CC50 [4]: 79.4 µM; GI50 [5]: 1.58 µM; GI50 [6]: 2 µM; TGI [6]: 7.94 µM; CC50 [6]: 31.6 µM; GI50 [7]: 2.51 µM; TGI [7]: 10 µM; GI50 [8]: 2.51 µM; TGI [8]: 10 µM; GI50 [9]: 2 µM; TGI [9]: 6.31 µM; CC50 [9]: 63.1 µM

Question: What does the source list for `CNC(=O)c1cc(Oc2ccc3nc(NC(=O)c4cc(C(F)(F)F)cc(C(F)(F)F)c4)sc3c2)ccn1`?
Answer: growth at 100 µM [10]: -42%; growth at 100 µM [11]: -65%; GI50 [1]: 3.13 µM; TGI [1]: 14.8 µM; CC50 [1]: 96.5 µM; growth at 100 µM [12]: 25%; growth at 100 µM [13]: -67%; GI50 [2]: 3.43 µM; TGI [2]: 23.3 µM; CC50 [2]: > 100 µM; growth at 100 µM [14]: -73%; GI50 [3]: 2.53 µM; LC50 [3]: > 100 µM; TGI [3]: 12.8 µM; growth at 0.1 µM [15]: 89%; growth at 1 µM [16]: 68%; growth at 1 µM [17]: 94%; GI50 [4]: 4.23 µM; TGI [4]: 25 µM; CC50 [4]: > 100 µM; GI50 [5]: 2.49 µM; TGI [5]: 5.11 µM; CC50 ([5]; read-out: LC50 (the source's name)): > 100 µM; growth at 100 µM [18]: -59%; GI50 [6]: 4.15 µM; TGI [6]: 17.4 µM; CC50 [6]: 76.2 µM; growth at 0.1 µM [19]: 92%; GI50 [7]: 3.7 µM; LC50 (50% lethal concentration) [7]: > 100 µM; TGI [7]: 19.8 µM; growth at 0.01 µM [20]: 92%; GI50 [8]: 2.66 µM; LC50 (concentration killing 50% of cells) [8]: > 100 µM; TGI [8]: 17 µM; growth at 1 µM [21]: 96%; activity at 5 min, 10 µM [22]: 98.3%; growth at 0.01 µM [23]: 108%; growth at 1 µM [24]: 100%; growth at 0.01 µM [25]: 88%; growth at 0.01 µM [26]: 97%; growth at 0.1 µM [27]: 96%; GI50 [9]: 2.03 µM; TGI [9]: 6.65 µM; CC50 [9]: > 100 µM; growth at 0.1 µM [28]: 101%; growth at 100 µM [29]: -73%
